molecular target: recombinant human PAI-1 (Homo sapiens, UniProt P05121); experiment: PAI-1 inhibitory activity, Test Method A (tPA fluorogenic substrate, Tris buffer pH8.0, 37 C); assay type: biochemical; conditions: 25 μM test compound; Test Method A
Method: To this solution, 50 μL solution of 400 μM fluogenic substrate for tPA (Pyr-Gly-Arg-MCA, Peptide Institute, Inc.) adjusted with the same buffer was added, and reacted for 30 minutes at 37° C. The reaction was stopped by adding 50 μL of 2% acetic acid. Fluorescence was measured at the excitation wavelength=360 nm, emission wavelength=460 or 465 nm using a microplate reader (SPECTRAFLUOR or GENios) by TECAN. The fluorescence intensities in the presence of the PAI-1 as the control (DMSO) or in the absence of the PAI-1 (tPA alone) were taken as 100% and 0% of PAI-1 activities, respectively, and inhibitory ratios of PAI-1 activities in the presence of the test compound were obtained.
<Composition of the Tris Buffer (pH8.0)>

Sequence of recombinant human PAI-1 (P05121 24-402): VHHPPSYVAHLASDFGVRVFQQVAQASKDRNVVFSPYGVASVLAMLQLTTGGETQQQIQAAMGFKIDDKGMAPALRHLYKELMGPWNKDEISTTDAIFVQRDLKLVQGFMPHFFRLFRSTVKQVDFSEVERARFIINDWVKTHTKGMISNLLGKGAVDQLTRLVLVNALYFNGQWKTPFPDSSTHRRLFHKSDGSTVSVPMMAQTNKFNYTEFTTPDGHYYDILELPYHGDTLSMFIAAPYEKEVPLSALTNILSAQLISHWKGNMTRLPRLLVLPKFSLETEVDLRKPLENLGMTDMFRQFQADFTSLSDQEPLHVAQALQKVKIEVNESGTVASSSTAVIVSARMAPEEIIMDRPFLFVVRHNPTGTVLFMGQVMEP

Row | Inhibitory Ratio at 25 μM (%) | Compound
1 | 98 | O=C1SC(=Cc2ccc(Oc3ccccc3)cc2)C(=O)N1Cc1cc(O)c(O)c(O)c1 [compound 308, 5-(4-Phenoxybenzylidene)-3-(3,4,5-trihydroxybenzyl)thiazolidine-2,4-dione]
2 | >99 | O=C(Nc1ccc(O)nc1)c1cc(C=C2SC(=O)N(Cc3ccc(Cl)c(Cl)c3)C2=O)ccc1O [compound 408]
3 | >99 | CCN(CC)c1ccc(O)c(C=C2C(=O)N(c3ccc(Cl)c(Cl)c3)N=C2C(C)C)c1 [compound 560]
4 | >99 | O=C(Nc1cccc(O)c1)c1cc(C=C2SC(=O)N(Cc3ccc(Cl)c(Cl)c3)C2=O)ccc1O [compound 356]
5 | >99 | O=C(Nc1cc(O)cc(C(F)(F)F)c1)c1cc(C=C2SC(=O)N(Cc3ccc(Cl)c(Cl)c3)C2=O)ccc1O [compound 459]
6 | 96 | O=C(O)c1ccc(N2N=C(c3cc(Br)ccc3O)C(=Cc3ccc(Cl)c(Cl)c3)C2=O)cc1 [Compound No. 564, 4-(3,4-Dichlorobenzylidene)-1-(4-carboxyphenyl)-3-(2-hydroxy-5-bromophenyl)-2-pyrazolin-5-one]
7 | 95 | O=C1SC(=Cc2cn(Cc3ccc(OCc4ccccc4)c(OCc4ccccc4)c3)c3ccccc23)C(=O)N1Cc1ccc(Cl)c(Cl)c1 [compound 411, 5-[1-(3,4-dibenzyloxybenzyl)indol-3-ylmethylene]-3-(3,4-dichlorobenzyl)thiazolidine-2,4-dione]
8 | 66 | CC(C)C1=NN(c2cc(Cl)ccc2Cl)C(=O)C1=Cc1cc(O)c(O)cc1O [compound 502, 4-(2,4,5-Trihydroxybenzylidene)-1-(2,5-dichlorophenyl)-3-isopropyl-2-pyrazolin-5-one]
9 | 56 | CCOC(=O)Oc1cc(C=C2SC(=O)N(Cc3ccc(Cl)c(Cl)c3)C2=O)cc(OC(=O)OCC)c1OC(=O)OCC [compound 340]
10 | >99 | O=C(Cc1cccc(Oc2ccccc2)c1)Nc1cccc(CN2C(=O)SC(=Cc3ccc(O)c(O)c3)C2=O)c1 [compound 321]
11 | 69 | O=C(Nc1cc(F)ccc1F)c1cc(C=C2SC(=O)N(Cc3ccc(Cl)c(Cl)c3)C2=O)ccc1O [compound 465]
12 | 64 | COc1ccc(NC(=O)c2cc(C=C3SC(=O)N(Cc4ccc(Cl)c(Cl)c4)C3=O)ccc2O)cc1OC [compound 432, 5-[4-hydroxy-3-(3,4-dimethoxyphenylcarbamoyl)benzylidene]-3-(3,4-dichlorobenzyl)thiazolidine-2,4-dione]
13 | >99 | CC(C)C1=NN(c2ccc(Cl)c(Cl)c2)C(=O)C1=Cc1cc(Oc2ccc(Br)cc2)ccc1[N+](=O)[O-] [Compound No. 562, 4-[2-Nitro-5-(4-bromophenoxy)benzylidene]-1-(3,4-dichlorophenyl)-3-isopropyl-2-pyrazolin-5-one]
14 | >99 | O=C1SC(=Cc2cccc(O)c2O)C(=O)N1Cc1cccc(Nc2ccccc2)c1 [compound 319]
15 | 39 | O=C(CCc1ccccc1)Nc1ccc(CN2C(=O)SC(=Cc3ccc(O)c(O)c3)C2=O)cc1 [compound 315]
16 | >99 | O=C(Nc1ccc(Cl)nc1)c1cc(C=C2SC(=O)N(Cc3ccc(C(F)(F)F)cc3)C2=O)ccc1O [compound 392]
17 | 35 | COc1ccc(C=C2SC(=O)N(Cc3ccc(Cl)c(Cl)c3)C2=O)cc1F [compound 331, 5-(3-fluoro-4-methoxybenzylidene)-3-(3,4-dichlorobenzyl)-thiazolidine-2,4-dione]
18 | 97 | O=C(Nc1cc(C=C2SC(=O)N(Cc3ccc(Cl)c(Cl)c3)C2=O)ccc1O)c1ccc(O)cc1 [compound 382]
19 | >99 | COc1ccc(NC(=O)c2cc(C=C3SC(=O)N(Cc4ccc(-c5ccccc5)cc4)C3=O)ccc2O)cc1OC [compound 371, 5-[4-Hydroxy-3-(3,4-dimethoxyphenylcarbamoyl)benzylidene]-3-(4-phenylbenzyl)thiazolidine-2,4-dione]
20 | 65 | O=C(Nc1ccc(O)c(O)c1)c1cccc(C=C2SC(=O)N(Cc3ccc(Cl)c(Cl)c3)C2=O)c1 [compound 388, 5-[3-(3,4-Dihydroxyphenylcarbamoyl)benzylidene]-3-(3,4-dichlorobenzyl)thiazolidine-2,4-dione]
21 | 89 | COc1cc(C=C2SC(=O)N(Cc3ccc(Cl)c(Cl)c3)C2=O)cc(C(=O)O)c1O [compound 345, 5-(3-Methoxy-4-hydroxy-5-carboxybenzlidene)-3-(3,4-dichlorobenzyl)thiazolidine-2,4-dione]
22 | 95 | CCOC1=NN(c2ccc([N+](=O)[O-])cc2)C(=O)C1=Cc1c(O)cccc1O [compound 552]
23 | >99 | COC(=O)c1ccc(Cl)cc1NC(=O)c1cc(C=C2SC(=O)N(Cc3ccc(Cl)c(Cl)c3)C2=O)ccc1O [compound 453, 5-[4-hydroxy-3-(2-methoxycarbonyl-5-chlorophenylcarbamoyl)-benzylidene]-3-(3,4-dichlorobenzyl)thiazolidine-2,4-dione]
24 | 84 | COc1ccc(NC(=O)c2cc(C=C3SC(=O)N(Cc4ccc([N+](=O)[O-])cc4)C3=O)ccc2O)cc1OC [compound 376, 5-[4-Hydroxy-3-(3,4-dimethoxyphenylcarbamoyl)benzylidene]-3-(4-nitrobenzyl)thiazolidine-2,4-dione]
25 | >99 | O=C1C(=Cc2ccc(O)cc2)C(c2ccc(O)cc2)=NN1c1cc(Cl)cc(Cl)c1 [compound 511]
26 | 50 | COc1cc(OC)c(OC)cc1C=C1C(=O)N(c2cc(Cl)cc(Cl)c2)N=C1C(C)C [compound 506]

Row | Compound | Inhibitory Ratio at 25 μM (%)
27 | COc1cc(C=C2SC(=O)N(Cc3ccc(Cl)c(Cl)c3)C2=O)cc(C(=O)Nc2ccccc2)c1O [compound 440] | 82
28 | O=C(Nc1cc(C(F)(F)F)ccc1Cl)c1cc(C=C2SC(=O)N(Cc3ccc(Cl)c(Cl)c3)C2=O)cc(O)c1O [compound 469] | >99

same assay, conditions: test compound 25 μM; Test Method A

Row | Inhibitory Ratio at 25 μM (%) | Compound
29 | >99 | CC(C)(C)c1cc(CN2C(=O)SC(=Cc3cccc(O)c3O)C2=O)cc(C(C)(C)C)c1O [compound 13, 5-(2,3-Dihydroxybenzylidene)-3-[3,5-di(tert-butyl)-4-hydroxybenzyl]-thiazolidine-2,4-dione]
30 | >99 | O=C1SC(=Cc2cccc(O)c2O)C(=O)N1Cc1cc(Br)cc(Br)c1 [compound 47]
31 | >99 | O=C1SC(=Cc2ccc(O)c(O)c2)C(=O)N1Cc1ccc(-c2ccccc2)cc1 [compound 21]
32 | >99 | O=C1SC(=Cc2ccc(O)c(O)c2)C(=O)N1Cc1cccc(Oc2ccccc2)c1 [compound 17]
33 | 90 | O=C1SC(=Cc2ccc(Cl)c(Cl)c2)C(=O)N1Cc1cc(O)c(O)c(O)c1 [compound 78, 5-(3,4-Dichlorobenzylidene)-3-(3,4,5-trihydroxybenzyl)thiazolidine-2,4-dione]
34 | 32 | CCOc1cc(C=C2C(=O)N(c3cccc(C(F)(F)F)c3)N=C2C)ccc1OCC(=O)O [compound 159]
35 | >99 | O=C1SC(=Cc2cc(O)cc(O)c2)C(=O)N1Cc1ccc(Cl)c(Cl)c1 [compound 40]
36 | >99 | O=C1SC(=Cc2cccc(O)c2O)C(=O)N1Cc1cc(Cl)cc(Cl)c1 [compound 11, 5-(2,3-Dihydroxybenzylidene)-3-(3,5-dichlorobenzyl)thiazolidine-2,4-dione]
37 | 31 | CC(C)C1=NN(c2cccc(C(=O)O)c2)C(=O)C1=Cc1ccc(-c2cc(Cl)cc(Cl)c2)o1 [compound 211]
38 | 46 | CC1=NN(c2cccc(Cl)c2)C(=O)C1=Cc1ccc(O)c(O)c1 [compound 117]
39 | 30 | CC1=NN(c2ccc(S(N)(=O)=O)cc2)C(=O)C1=Cc1ccc(-c2cccc(Cl)c2)o1 [compound 186]
40 | >99 | CCOc1cc(C=C2C(=O)N(c3cccc(C(=O)O)c3)N=C2C)ccc1OC(=O)c1cccs1 [compound 103]
41 | 44 | COc1cccc(N2N=C(C(C)C)C(=Cc3ccc(O)c(O)c3)C2=O)c1 [compound 126]
42 | >99 | Cc1ccc(N2N=C(C(C)C)C(=Cc3ccc(O)c(O)c3)C2=O)cc1Cl [compound 119, 4-(3,4-Dihydroxybenzylidene)-1-(3-chloro-4-methylphenyl)-3-isopropyl-2-pyrazolin-5-one]
43 | 21 | COC(=O)c1cccc(-c2ccc(C=C3C(=O)N(c4cccc(C(=O)O)c4)N=C3C)o2)c1 [compound 189]
44 | 93 | O=C1SC(=Cc2cccc(O)c2O)C(=O)N1Cc1cccc([N+](=O)[O-])c1 [compound 49]
45 | >99 | COc1cc(C=C2C(=O)N(c3ccc(Cl)c(C(=O)O)c3)N=C2C)ccc1OCc1ccccc1 [compound 170]
46 | 50 | O=C1SC(=Cc2cc(O)c(O)c(O)c2)C(=O)N1Cc1cccc([N+](=O)[O-])c1 [compound 52]
47 | >99 | CC(C)C1=NN(c2cc(Cl)cc(Cl)c2)C(=O)C1=Cc1cc(O)c(O)c(O)c1 [compound 130]
48 | >99 | CC(C)C1=NN(c2cc(Cl)cc(Cl)c2)C(=O)C1=Cc1ccc(O)c(C(=O)O)c1 [compound 106]
49 | 35 | CC1=NN(c2cccc(C(F)(F)F)c2)C(=O)C1=Cc1cccc(O)c1 [compound 122]

Row | Compound | Inhibitory Ratio at 25 μM (%)
50 | Nc1cc(C=C2SC(=O)N(Cc3ccc(Cl)c(Cl)c3)C2=O)ccc1O [compound 86] | 21

From patent US20070276011A1, “Plasminogen Activator Inhibitor-1 Inhibitor” (priority 2003, published 2007)
